Measurements from doi:10.1101/2024.03.08.584095v1, “LPOR and the membranes – evolutionary pathway towards prolamellar body formation” (biorxiv, 2024).

Assays:
AtPORB = target: T1, AtPORB (Arabidopsis thaliana, UniProt P21218); test: […] K fluorescence emission shift of Pchlide; format: binding; conditions: 5 µM Pchlide, 15 µM enzyme, 200 µM NADP+, 100 µM OPT lipids, pH 7.1; inactive complex
T1 construct: gene PORB; cloned in a previous study
T1 sequence (P21218 67-401): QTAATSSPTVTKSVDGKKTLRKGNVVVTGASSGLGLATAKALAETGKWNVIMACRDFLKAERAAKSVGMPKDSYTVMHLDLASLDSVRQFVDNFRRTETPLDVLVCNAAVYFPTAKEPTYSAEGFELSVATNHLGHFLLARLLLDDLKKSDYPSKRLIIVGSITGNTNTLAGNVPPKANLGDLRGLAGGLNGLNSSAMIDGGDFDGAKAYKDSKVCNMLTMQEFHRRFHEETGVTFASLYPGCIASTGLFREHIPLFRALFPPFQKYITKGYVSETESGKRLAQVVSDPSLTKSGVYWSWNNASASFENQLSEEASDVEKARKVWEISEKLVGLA

SynPOR = target: T2, SynPOR (Synechocystis sp. PCC 6803, UniProt Q59987); test: […] K fluorescence emission shift of Pchlide; format: binding; conditions: 5 µM Pchlide, 15 µM enzyme, 200 µM dinucleotide, no lipids, pH 7.1
T2 construct: gene por; recombinant, E. coli BL21(DE3)pRIL, cloned in a previous study; tag not described here

AtPORB_α10 = test system: T3, AtPORB_α10; test: […] K fluorescence, Chlide/Pchlide ratio after […] s illumination, modified Michaelis-Menten fit; format: biochemical, Arabidopsis thaliana; conditions: 5 µM Pchlide, 15 µM enzyme, no lipids, pH 7.1, room temperature; apparent analogue of Km
T3 construct: gene PORB; AtPORB with helix alpha10 of SynPOR; pET15b, E. coli

T2 sequence (Q59987 whole entry): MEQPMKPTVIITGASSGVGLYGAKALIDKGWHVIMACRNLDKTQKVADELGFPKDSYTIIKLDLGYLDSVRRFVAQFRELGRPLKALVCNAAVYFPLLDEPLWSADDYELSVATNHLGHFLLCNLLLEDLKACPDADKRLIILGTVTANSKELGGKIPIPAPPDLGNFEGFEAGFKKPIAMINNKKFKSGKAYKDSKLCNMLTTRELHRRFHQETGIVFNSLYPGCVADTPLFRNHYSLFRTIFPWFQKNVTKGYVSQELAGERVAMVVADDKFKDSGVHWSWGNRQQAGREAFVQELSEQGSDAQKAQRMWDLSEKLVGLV

Row | Compound | 77 K fluorescence emission shift of Pchlide (AtPORB) | 77 K fluorescence emission shift of Pchlide (SynPOR) | Km (AtPORB_α10) [µM]
1 | NC(=O)c1ccc[n+]([C@@H]2O[C@H](COP(=O)(O)OP(=O)(O)OC[C@H]3O[C@@H](n4cnc5c(N)ncnc54)[C@H](OP(=O)(O)O)[C@@H]3O)[C@@H](O)[C@H]2O)c1 [NADP+] | AtPORB:Pchlide can bind NADP^+ in the presence of OPT lipids | Introduction of NADP^+ into the lipid-free mixture induced further red shift | –
2 | NC(=O)C1=CN([C@@H]2O[C@H](COP(=O)(O)OP(=O)(O)OC[C@H]3O[C@@H](n4cnc5c(N)ncnc54)[C@H](OP(=O)(O)O)[C@@H]3O)[C@@H](O)[C@H]2O)C=CC1 [NADPH] | – | – | 22.6 ± 3.3
